For 28 compounds, fold induction results are on record in patent US10766869B2, “Triazoles for the treatment of demyelinating dieases” (Vertex Pharmaceuticals Incorporated, priority 2015, dated 2020).

The assay deals with primary rat mixed cortical cells. Description: In vitro myelination assay (MBP positive myelin strands, fold myelin pixels above background). In kind it is cell-based. To be noted: Rattus norvegicus, relative to baseline of no added compound, read-out: Fold myelin pixels above background; for fold induction at 1 µM: 1.0 μM compound; for fold induction at 10 µM: 10.0 μM compound. Put shortly: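 Myelination read as total MBP-immunopositive strand pixels per well, imaged at 10× after fixation on day 14 and expressed relative to untreated wells, at 1.0 and 10.0 μM. Cells: dissociated postnatal day 1 rat cortex, cultured two weeks with compound, re-dosed at days 6 and 10.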

Take `Cc1cc(Nc2ncn(-c3cc(F)cc(F)c3)n2)nc(N2CC3(CCOC3)C2)c1` [Compound 570, N-[1-(3,5-difluorophenyl)-1,2,4-triazol-3-yl]-4-methyl-6-(7-oxa-2-azaspiro[3.4]octan-2-yl)pyridin-2-amine]: the fold induction at 1 µM was ≤ 1 and the fold induction at 10 µM was in the range of 1 to 10.

As for `Cc1cc(Nc2ncn(-c3cc(F)cc(F)c3)n2)nc(N2CC3(CCO3)C2)c1` [Compound 571, N-[1-(3,5-difluorophenyl)-1,2,4-triazol-3-yl]-4-methyl-6-(3-oxa-6-azaspiro[3.3]heptan-6-yl)pyridin-2-amine], the fold induction at 1 µM was ≤ 1 and the fold induction at 10 µM was 1 to 10.

Regarding `Cc1cc(Nc2ncn(-c3cc(F)cc(F)c3)n2)nc(N2CC(C(C)(C)O)C2)c1` [Compound 572, 2-[1-[6-[[1-(3,5-difluorophenyl)-1,2,4-triazol-3-yl]amino]-4-methyl-2-pyridyl]azetidin-3-yl]propan-2-ol], the fold induction at 1 µM was ≤ 1 and the fold induction at 10 µM is 1 to 10.

With `CC(C)(C)N1CCN(c2cc(Nc3ncn(-c4cc(F)cc(F)c4)n3)cc(N3CCN(C(C)(C)C)CC3)c2)CC1` [Compound 573, N-[3,5-bis(4-tert-butylpiperazin-1-yl)phenyl]-1-(3,5-difluorophenyl)-1,2,4-triazol-3-amine], the fold induction at 1 µM lay in the range of 1 to 10 and the fold induction at 10 µM is 1 to 10.

With `Fc1cc(F)cc(-n2cnc(Nc3cc(N4CCN(C5COC5)CC4)cc(N4CCN(C5COC5)CC4)c3)n2)c1` [Compound 574, N-[3,5-bis[4-(oxetan-3-yl)piperazin-1-yl]phenyl]-1-(3,5-difluorophenyl)-1,2,4-triazol-3-amine], the fold induction at 1 µM lay in the range of 100 to 1000 and the fold induction at 10 µM fell in the range of 10 to 100.

Take `Cc1cc(Nc2ncn(-c3cccc(C(F)(F)F)c3)n2)cc(OCCN2CCOCC2)c1` [Compound 575, N-[3-methyl-5-(2-morpholinoethoxy)phenyl]-1-[3-(trifluoromethyl)phenyl]-1,2,4-triazol-3-amine]: the fold induction at 1 µM lay within 10 to 100 and the fold induction at 10 µM is ≤ 1.

Consider `FC(F)c1cc(Nc2ncn(-c3cnccn3)n2)nc(N2CCN(C3COC3)CC2)c1` [Compound 576, 4-(difluoromethyl)-6-[4-(oxetan-3-yl)piperazin-1-yl]-N-(1-pyrazin-2-yl-1,2,4-triazol-3-yl)pyridin-2-amine], for which the fold induction at 1 µM lay in the range of 10 to 100 and the fold induction at 10 µM lay in the range of 10 to 100.

Turning to `CCc1cc(Nc2ncn(-c3ccc(F)c(F)c3)n2)cc(N2CCN(C3(C)COC3)CC2)c1` [Compound 577, 1-(3,4-difluorophenyl)-N-[3-ethyl-5-[4-(3-methyloxetan-3-yl)piperazin-1-yl]phenyl]-1,2,4-triazol-3-amine], the fold induction at 1 µM lay in the range of 10 to 100 and the fold induction at 10 µM is 10 to 100.

Regarding `Cc1cc(Nc2ncn(-c3cccc(C(F)(F)F)c3)n2)nc(N2CCN(C3COC3)CC2)c1` [Compound 578, 4-methyl-6-[4-(oxetan-3-yl)piperazin-1-yl]-N-[1-[3-(trifluoromethyl)phenyl]-1,2,4-triazol-3-yl]pyridin-2-amine], the fold induction at 1 µM was in the range of 1 to 10 and the fold induction at 10 µM was 10 to 100.

`CC(F)(F)c1cc(Nc2ncn(-c3ccc(F)c(F)c3)n2)nc(N2CCN(C3COC3)CC2)c1` [Compound 579, 4-(1,1-difluoroethyl)-N-[1-(3,4-difluorophenyl)-1,2,4-triazol-3-yl]-6-[4-(oxetan-3-yl)piperazin-1-yl]pyridin-2-amine]: the fold induction at 1 µM was 1 to 10 and the fold induction at 10 µM is 1 to 10.

On to `Cc1cc(Nc2ncn(-c3cc(F)cc(F)c3)n2)nc(N2CCN(C3(C)COC3)CC2)c1` [Compound 580, N-[1-(3,5-difluorophenyl)-1,2,4-triazol-3-yl]-4-methyl-6-[4-(3-methyloxetan-3-yl)piperazin-1-yl]pyridin-2-amine], for which the fold induction at 1 µM was ≤ 1 and the fold induction at 10 µM lay within 1 to 10.

On to `Cc1cc(Nc2ncn(-c3cc(F)cc(F)c3)n2)cc(C2CN(C3COC3)CCO2)c1` (centres unmarked) [Compound 581, 1-(3,5-difluorophenyl)-N-[3-methyl-5-[4-(oxetan-3-yl)morpholin-2-yl]phenyl]-1,2,4-triazol-3-amine], for which the fold induction at 1 µM was in the range of 10 to 100 and the fold induction at 10 µM is ≤ 1.

As for `Cc1cc(Nc2ncn(-c3cc(F)cc(F)c3)n2)cc(N2CCN(C(=O)N3CCOCC3)CC2)c1` [Compound 582, [4-[3-[[1-(3,5-difluorophenyl)-1,2,4-triazol-3-yl]amino]-5-methyl-phenyl]piperazin-1-yl]-morpholino-methanone], the fold induction at 1 µM was 1 to 10 and the fold induction at 10 µM was 10 to 100.

For `Cc1cc(CN2CCN(C3COC3)CC2)cc(Nc2ncn(-c3cnccn3)n2)c1` [Compound 583, N-[3-methyl-5-[[4-(oxetan-3-yl)piperazin-1-yl]methyl]phenyl]-1-pyrazin-2-yl-1,2,4-triazol-3-amine], the fold induction at 1 µM was 10 to 100 and the fold induction at 10 µM lay within 10 to 100.

Regarding `COC[C@H](C)NC(=O)C1CN(c2cc(C)cc(Nc3ncn(-c4cc(F)cc(F)c4)n3)c2)C1` [Compound 584, 1-[3-[[1-(3,5-difluorophenyl)-1,2,4-triazol-3-yl]amino]-5-methyl-phenyl]-N-[(1S)-2-methoxy-1-methyl-ethyl]azetidine-3-carboxamide], the fold induction at 1 µM was 10 to 100 and the fold induction at 10 µM fell in the range of 1 to 10.

`Cc1cc(Nc2ncn(-c3cccnc3)n2)cc(N2CCN(C3(C)COC3)CC2)c1` [Compound 585, N-[3-methyl-5-[4-(3-methyloxetan-3-yl)piperazin-1-yl]phenyl]-1-(3-pyridyl)-1,2,4-triazol-3-amine]: the fold induction at 1 µM lay within 10 to 100 and the fold induction at 10 µM lay in the range of 1 to 10.

For `Cc1cc(Nc2ncn(-c3cc(F)cc(F)c3)n2)cc(N2CC(N3CCOC4(CC4)C3)C2)c1` [Compound 586, 1-(3,5-difluorophenyl)-N-[3-methyl-5-[3-(4-oxa-7-azaspiro[2.5]octan-7-yl)azetidin-1-yl]phenyl]-1,2,4-triazol-3-amine], the fold induction at 1 µM was in the range of 10 to 100 and the fold induction at 10 µM lay in the range of 10 to 100.

Turning to `Cc1cc(N2CCN(C3COC3)CC2)cc(Nc2ncn(-c3cc(F)cc(F)c3)n2)c1F` [Compound 587, 1-(3,5-difluorophenyl)-N-[2-fluoro-3-methyl-5-[4-(oxetan-3-yl)piperazin-1-yl]phenyl]-1,2,4-triazol-3-amine], the fold induction at 1 µM is 1 to 10 and the fold induction at 10 µM was 10 to 100.

Take `Cc1cc(Nc2ncn(-c3ccccc3)n2)cc(Nc2ncc(C)s2)c1` [Compound 588, 5-methyl-N1-(5-methylthiazol-2-yl)-N3-(1-phenyl-1,2,4-triazol-3-yl)benzene-1,3-diamine]: the fold induction at 1 µM lay within 10 to 100 and the fold induction at 10 µM is ≤ 1.

As for `Cc1cc(Nc2ncn(-c3cc(F)cc(F)c3)n2)cc(N2CCC(C(=O)N3CCOCC3)CC2)c1` [Compound 589, [1-[3-[[1-(3,5-difluorophenyl)-1,2,4-triazol-3-yl]amino]-5-methyl-phenyl]-4-piperidyl]-morpholino-methanone], the fold induction at 1 µM was in the range of 10 to 100 and the fold induction at 10 µM was ≤ 1.

On to `Cc1cc(Nc2ncn(-c3ccc(F)c(F)c3)n2)cc(OC2CCCN(C3COC3)C2)c1` (centres unmarked) [Compound 590, 1-(3,4-difluorophenyl)-N-[3-methyl-5-[[1-(oxetan-3-yl)-3-piperidyl]oxy]phenyl]-1,2,4-triazol-3-amine], for which the fold induction at 1 µM was 10 to 100 and the fold induction at 10 µM is 1 to 10.

Consider `Cc1c(Nc2ncn(-c3cc(F)cc(F)c3)n2)cc(N2CCN(C3COC3)CC2)cc1OC(C)C` [Compound 591, 1-(3,5-difluorophenyl)-N-[3-isopropoxy-2-methyl-5-[4-(oxetan-3-yl)piperazin-1-yl]phenyl]-1,2,4-triazol-3-amine], for which the fold induction at 1 µM lay in the range of 10 to 100 and the fold induction at 10 µM was in the range of 10 to 100.

Regarding `N#Cc1cc(Nc2ncn(-c3ccccc3)n2)cc(N2CCN(C3COC3)CC2)c1` [Compound 592, 3-[4-(oxetan-3-yl)piperazin-1-yl]-5-[(1-phenyl-1,2,4-triazol-3-yl)amino]benzonitrile], the fold induction at 1 µM lay in the range of 1 to 10 and the fold induction at 10 µM was ≤ 1.

`Cc1cc(Nc2ncn(-c3cc(F)cc(F)c3)n2)cc(N2CCN(CCN3CCOCC3)CC2)c1` [Compound 593, 1-(3,5-difluorophenyl)-N-[3-methyl-5-[4-(2-morpholinoethyl)piperazin-1-yl]phenyl]-1,2,4-triazol-3-amine]: the fold induction at 1 µM is 1 to 10 and the fold induction at 10 µM was ≤ 1.

Regarding `Fc1cc(Nc2ncn(-c3cccc(F)c3)n2)cc(N2CCN(C3COC3)CC2)c1` [Compound 594, N-[3-fluoro-5-[4-(oxetan-3-yl)piperazin-1-yl]phenyl]-1-(3-fluorophenyl)-1,2,4-triazol-3-amine], the fold induction at 1 µM lay in the range of 1 to 10 and the fold induction at 10 µM was in the range of 1 to 10.

Consider `Cc1cc(Nc2ncn(-c3cccc(C(F)F)c3)n2)cc(N2CC(N3CCOCC3)C2)c1` [Compound 595, 1-[3-(difluoromethyl)phenyl]-N-[3-methyl-5-(3-morpholinoazetidin-1-yl)phenyl]-1,2,4-triazol-3-amine], for which the fold induction at 1 µM is 1 to 10 and the fold induction at 10 µM is ≤ 1.

As to `Cc1cc(CN2CCN(C3COC3)CC2)cc(Nc2ncn(-c3cc(F)cc(F)c3)n2)c1` [Compound 596, 1-(3,5-difluorophenyl)-N-[3-methyl-5-[[4-(oxetan-3-yl)piperazin-1-yl]methyl]phenyl]-1,2,4-triazol-3-amine], the fold induction at 1 µM is 10 to 100 and the fold induction at 10 µM fell in the range of 10 to 100.

Regarding `Cc1cc(Nc2ncn(-c3ccc(F)c(Cl)c3)n2)cc(N2CCN(C3COC3)CC2)c1` [Compound 597, 1-(3-chloro-4-fluoro-phenyl)-N-[3-methyl-5-[4-(oxetan-3-yl)piperazin-1-yl]phenyl]-1,2,4-triazol-3-amine], the fold induction at 1 µM fell in the range of 1 to 10 and the fold induction at 10 µM was ≤ 1.
